Active and inactive are the calls of the source. The rule behind the calls is not given here.
Legend:
HaCaT = experiment: Cytotoxicity against human HaCaT cells at <= 20 uM after 24 hrs by EZ-Cytox solution based microplate reader assay; format: toxicity, cell-based
B16-F10 [1] = experiment: Cytotoxicity against mouse B16-F10 cells at <= 20 uM after 72 hrs by EZ-Cytox solution based microplate reader assay; format: toxicity, cell-based; conditions: b16-f10, 72 h
[2] = Antioxidant activity assessed as peroxynitrite scavenging activity by measuring rhodamine 123 fluorescence intensity at 50 uM in presence of SIN-1; format: functional
[3] = Antioxidant activity assessed as reduction in H2O2 induced hydroxyl radical production at 40 uM; format: functional
[4] = Antioxidant activity assessed as reduction in FeSO4 induced hydroxyl radical production at 40 uM; format: functional
Danio rerio = experiment: Depigmentation activity in zebrafish embryos administered at 21 hpf and measured after 69 hpf; format: functional, organism-based; conditions: dose 0.01-0.4 mM, time […]
B16-F10 [5] = experiment: Inhibition of melanin production in mouse B16-F10 cells preincubated for 1 hr followed by alpha-MSH and IBMX addition and measured after 72 hrs; format: functional, cell-based; conditions: dose 5-20 µM, time 73.0 hrs
Mushroom tyrosinase [6] = target: T1, Mushroom tyrosinase (Agaricus bisporus, UniProt O42713+Q00024+C7FF04+C7FF05); experiment: Inhibition of mushroom tyrosinase diphenolase activity using L-dopa as substrate incubated for 0.5 hrs; format: protein assay
Mushroom tyrosinase [7] = target: T1, Mushroom tyrosinase; experiment: Inhibition of mushroom tyrosinase monophenolase activity using L-tyrosine as substrate incubated for 0.5 hrs; format: protein assay
[8] = target: T2, Tyrosinase (Mus musculus) (UniProt P11344); experiment: Inhibition of tyrosinase activity in mouse B16-F10 cells preincubated for 1 hr followed by alpha-MSH and IBMX addition and measured after 72 hrs; format: cell-based; conditions: time 73.0 hrs
T2 sequence (whole entry): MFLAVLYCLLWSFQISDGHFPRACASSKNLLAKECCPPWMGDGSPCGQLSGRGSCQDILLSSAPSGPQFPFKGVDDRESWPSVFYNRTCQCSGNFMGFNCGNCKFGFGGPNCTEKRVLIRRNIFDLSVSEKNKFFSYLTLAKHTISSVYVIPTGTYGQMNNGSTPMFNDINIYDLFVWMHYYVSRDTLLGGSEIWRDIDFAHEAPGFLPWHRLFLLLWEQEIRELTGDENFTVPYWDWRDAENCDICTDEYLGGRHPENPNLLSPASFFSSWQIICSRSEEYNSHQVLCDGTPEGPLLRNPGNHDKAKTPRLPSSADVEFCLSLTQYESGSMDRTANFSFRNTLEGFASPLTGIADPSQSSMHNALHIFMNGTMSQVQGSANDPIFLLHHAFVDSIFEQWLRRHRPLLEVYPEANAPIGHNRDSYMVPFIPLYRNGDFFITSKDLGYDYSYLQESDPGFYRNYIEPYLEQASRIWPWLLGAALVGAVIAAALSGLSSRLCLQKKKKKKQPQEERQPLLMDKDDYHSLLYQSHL

Row | IC50 (Mushroom tyrosinase [6]) [µM] | IC50 (Mushroom tyrosinase [7]) [µM] | inhibition [8] | SMILES | Activity (HaCaT) | Activity (B16-F10 [1]) | Activity [2] | Activity [3] | Activity [4] | Activity (Danio rerio) | inhibition (B16-F10 [5])
1 | – | – | – | Cc1ccc2[nH]c(S)nc2c1 | Non-Toxic | Non-Toxic | – | – | – | – | –
2 | – | – | – | Cc1c(C)c2c(c(C)c1O)CCC(C)(C(=O)O)O2 (centres undefined) | – | – | Active | Active | Active | – | –
3 | 0.02 | 0.1 | Dose-Dependent Effect | O=C(c1ccccc1)c1ccc2[nH]c(S)nc2c1 | – | – | Active | inactive | inactive | Dose-Dependent Effect | Dose-Dependent Effect
4 | – | – | – | O=C(c1ccccc1)c1ccc2[nH]c(=S)[nH]c2c1 | Non-Toxic | Non-Toxic | – | – | – | – | –
5 | – | – | Dose-Dependent Effect | Cc1ccc2[nH]c(=S)[nH]c2c1 | – | – | – | inactive | inactive | Dose-Dependent Effect | Dose-Dependent Effect
6 | – | – | – | O=[N+]([O-])c1ccc2[nH]c(S)nc2c1 | – | – | – | inactive | inactive | Dose-Dependent Effect | –
7 | 0.04 | 0.11 | – | N#Cc1ccc2[nH]c(S)nc2c1 | – | – | Active | inactive | inactive | Dose-Dependent Effect | –
8 | – | – | – | COc1ccc2[nH]c(S)nc2c1 | – | – | – | inactive | inactive | Dose-Dependent Effect | –
9 | – | – | – | CC(C)(S)[C@@H](N)C(=O)O | – | – | Active | – | – | – | –
10 | 0.74 | 5.78 | – | Cc1cccc2[nH]c(=S)[nH]c12 | – | – | – | inactive | inactive | Dose-Dependent Effect | –
11 | – | – | – | Sc1nc2ccccc2[nH]1 | – | – | – | inactive | inactive | Dose-Dependent Effect | –
12 | – | – | – | Fc1ccc2[nH]c(S)nc2c1 | – | – | – | inactive | inactive | Dose-Dependent Effect | –
13 | – | – | Dose-Dependent Effect | Cc1cc2nc(S)[nH]c2cc1C | Non-Toxic | Non-Toxic | – | inactive | inactive | Dose-Dependent Effect | Dose-Dependent Effect
14 | – | – | Dose-Dependent Effect | Sc1nc2cc(Cl)ccc2[nH]1 | Non-Toxic | Non-Toxic | Active | inactive | inactive | Dose-Dependent Effect | Dose-Dependent Effect

From ChEMBL document CHEMBL5543082, “In vitro and in vivo anti-pigmentation effects of 2-mercaptobenzimidazoles as nanomolar tyrosinase inhibitors on mammalian cells and zebrafish embryos: Preparation of pigment-free zebrafish embryos” (Eur J Med Chem, 2024)
